Key:
[1] = system: rice flat sedge; experiment: Test Example 3: herbicidal effect by foliage application, Wagner pot (Table 18, symbol E); assay type: in vivo, rice flat sedge (Cyperus iria); conditions: for herbicidal effect on E: rice flat sedge: amount of applied herbicide 320 g/ha; for herbicidal effect on rice flat sedge (E): 320 g/ha
How it was run: (§1)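 Plants were sown in alluvial soil held under 0.1–0.5 cm standing water and grown 14 days in a greenhouse at 25–30 °C. An emulsifiable formulation, water-diluted to the set dose, was then sprayed onto the foliage, and effects were scored three weeks later using previously defined criteria.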

[2] = system: southern crabgrass; experiment: Test Example 5: herbicidal effect by foliage application, plastic box (Table 20, symbol F); assay type: in vivo, southern crabgrass (Digitaria ciliaris); conditions: 320 g/ha, evaluated three weeks after application; for herbicidal effect on F: southern crabgrass (criteria 0-5): foliage application; for herbicidal effect on F: southern crabgrass (evaluation grade 0-5): foliage application after 14-day growth
How it was run: (§2)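 Plants sown in sterilized diluvial soil and grown 14 days in a greenhouse at 25° C to 30° C, then sprayed on the foliage with the compound's emulsion diluted in water to a predetermined herbicide amount. Injury to weeds and crops scored three weeks after application on a visual rating scale.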

[3] = system: velvetleaf; experiment: Test Example 5: herbicidal effect by foliage application, plastic box (Table 20, symbol M); assay type: in vivo, velvetleaf (Abutilon theophrasti); conditions: 320 g/ha, evaluated three weeks after application; for herbicidal effect on M: velvetleaf (criteria 0-5): foliage application; for herbicidal effect on M: velvetleaf (evaluation grade 0-5): foliage application after 14-day growth
How it was run: as §2

[4] = system: persian speedwell; experiment: Test Example 5: herbicidal effect by foliage application, plastic box (Table 20, symbol R); assay type: in vivo, Persian speedwell (Veronica persica); conditions: 320 g/ha, evaluated three weeks after application; for herbicidal effect on R: persian speedwell (criteria 0-5): foliage application; for herbicidal effect on R: persian speedwell (evaluation grade 0-5): foliage application after 14-day growth
How it was run: as §2

[5] = system: false cleavers; experiment: Test Example 5: herbicidal effect by foliage application, plastic box (Table 20, symbol Q); assay type: in vivo, false cleavers (Galium spurium); conditions: 320 g/ha, evaluated three weeks after application; for herbicidal effect on Q: false cleavers (criteria 0-5): foliage application; for herbicidal effect on Q: false cleavers (evaluation grade 0-5): foliage application after 14-day growth
How it was run: as §2

[6] = system: barnyard grass; experiment: Test Example 5: herbicidal effect by foliage application, plastic box (Table 20, symbol H); assay type: in vivo, barnyard grass (Echinochloa crus-galli); conditions: 320 g/ha, evaluated three weeks after application; for herbicidal effect on H: barnyard grass (criteria 0-5): foliage application; for herbicidal effect on H: barnyard grass (evaluation grade 0-5): foliage application after 14-day growth
How it was run: as §2

[7] = system: wild oat; experiment: Test Example 5: herbicidal effect by foliage application, plastic box (Table 20, symbol I); assay type: in vivo, wild oat (Avena fatua); conditions: 320 g/ha, evaluated three weeks after application; for herbicidal effect on I: wild oat (criteria 0-5): foliage application; for herbicidal effect on I: wild oat (evaluation grade 0-5): foliage application after 14-day growth
How it was run: as §2

[8] = system: Chinese sprangletop; experiment: Test Example 3: herbicidal effect by foliage application, Wagner pot (Table 18, symbol D); assay type: in vivo, chinese sprangletop (Leptochloa chinensis); conditions: for herbicidal effect on D: Chinese sprangletop: amount of applied herbicide 320 g/ha; for herbicidal effect on Chinese sprangletop (D): 320 g/ha
How it was run: as §1

[9] = system: Italian ryegrass; experiment: Test Example 5: herbicidal effect by foliage application, plastic box (Table 20, symbol K); assay type: in vivo, Italian ryegrass (Lolium multiflorum); conditions: 320 g/ha, evaluated three weeks after application; for herbicidal effect on K: Italian ryegrass (criteria 0-5): foliage application; for herbicidal effect on K: Italian ryegrass (evaluation grade 0-5): foliage application after 14-day growth
How it was run: as §2

[10] = system: windgrass; experiment: Test Example 5: herbicidal effect by foliage application, plastic box (Table 20, symbol L); assay type: in vivo, windgrass (Apera spica-venti); conditions: 320 g/ha, evaluated three weeks after application; for herbicidal effect on L: windgrass (criteria 0-5): foliage application; for herbicidal effect on L: windgrass (evaluation grade 0-5): foliage application after 14-day growth
How it was run: as §2

[11] = system: barnyard grass; experiment: Test Example 3: herbicidal effect by foliage application, Wagner pot (Table 18, symbol H); assay type: in vivo, barnyard grass (Echinochloa crus-galli); conditions: for herbicidal effect on H: barnyard grass: amount of applied herbicide 320 g/ha; for herbicidal effect on barnyard grass (H): 320 g/ha
How it was run: as §1

[12] = system: chickweed; experiment: Test Example 5: herbicidal effect by foliage application, plastic box (Table 20, symbol P); assay type: in vivo, common chickweed (Stellaria media); conditions: 320 g/ha, evaluated three weeks after application; for herbicidal effect on P: chickweed (criteria 0-5): foliage application; for herbicidal effect on P: chickweed (evaluation grade 0-5): foliage application after 14-day growth
How it was run: as §2

[13] = system: redroot pigweed; experiment: Test Example 5: herbicidal effect by foliage application, plastic box (Table 20, symbol N); assay type: in vivo, redroot pigweed (Amaranthus retroflexus); conditions: 320 g/ha, evaluated three weeks after application; for herbicidal effect on N: redroot pigweed (criteria 0-5): foliage application; for herbicidal effect on N: redroot pigweed (evaluation grade 0-5): foliage application after 14-day growth
How it was run: as §2

[14] = system: lambsquarters; experiment: Test Example 5: herbicidal effect by foliage application, plastic box (Table 20, symbol O); assay type: in vivo, lambsquarters (Chenopodium album); conditions: 320 g/ha, evaluated three weeks after application; for herbicidal effect on O: lambsquarters (criteria 0-5): foliage application; for herbicidal effect on O: lambsquarters (evaluation grade 0-5): foliage application after 14-day growth
How it was run: as §2

[15] = system: blackgrass; experiment: Test Example 5: herbicidal effect by foliage application, plastic box (Table 20, symbol J); assay type: in vivo, blackgrass (Alopecurus myosuroides); conditions: 320 g/ha, evaluated three weeks after application; for herbicidal effect on J: blackgrass (criteria 0-5): foliage application; for herbicidal effect on J: blackgrass (evaluation grade 0-5): foliage application after 14-day growth
How it was run: as §2

[16] = system: green foxtail; experiment: Test Example 5: herbicidal effect by foliage application, plastic box (Table 20, symbol G); assay type: in vivo, green foxtail (Setaria viridis); conditions: 320 g/ha, evaluated three weeks after application; for herbicidal effect on G: green foxtail (criteria 0-5): foliage application; for herbicidal effect on G: green foxtail (evaluation grade 0-5): foliage application after 14-day growth
How it was run: as §2

| SMILES | herbicidal effect on E: rice flat sedge [1] | herbicidal effect on F: southern crabgrass (criteria 0-5) [2] | herbicidal effect on M: velvetleaf (criteria 0-5) [3] | herbicidal effect on R: persian speedwell (criteria 0-5) [4] | herbicidal effect on Q: false cleavers (criteria 0-5) [5] | herbicidal effect on H: barnyard grass (criteria 0-5) [6] | herbicidal effect on I: wild oat (criteria 0-5) [7] | herbicidal effect on D: Chinese sprangletop [8] | herbicidal effect on K: Italian ryegrass (criteria 0-5) [9] | herbicidal effect on L: windgrass (criteria 0-5) [10] | herbicidal effect on H: barnyard grass [11] | herbicidal effect on P: chickweed (criteria 0-5) [12] | herbicidal effect on N: redroot pigweed (criteria 0-5) [13] | herbicidal effect on O: lambsquarters (criteria 0-5) [14] | herbicidal effect on J: blackgrass (criteria 0-5) [15] | herbicidal effect on G: green foxtail (criteria 0-5) [16] | herbicidal effect on rice flat sedge (E) [1] | herbicidal effect on F: southern crabgrass (evaluation grade 0-5) [2] | herbicidal effect on M: velvetleaf (evaluation grade 0-5) [3] | herbicidal effect on R: persian speedwell (evaluation grade 0-5) [4] | further results |
| --- | --- | --- | --- | --- | --- | --- | --- | --- | --- | --- | --- | --- | --- | --- | --- | --- | --- | --- | --- | --- | --- |
| Cc1ccc2sc(-c3ccc4c(c3)OCCO4)c(-c3c(O)c(C)nn(C)c3=O)c2c1 [2-158] | 4 (Herbicidal rate of 70% or more and less than 90%) | 0 (Herbicidal rate of 5% or less (almost no effect)) | 2 (Herbicidal rate of 20% or more and less than 40%) | 5 (Herbicidal rate of 90% or more (almost completely withered)) | 0 (Herbicidal rate of 5% or less (almost no effect)) | 0 (Herbicidal rate of 5% or less (almost no effect)) | 0 (Herbicidal rate of 5% or less (almost no effect)) | 1 (Herbicidal rate of 5% or more and less than 20%) | 0 (Herbicidal rate of 5% or less (almost no effect)) | 0 (Herbicidal rate of 5% or less (almost no effect)) | 0 (Herbicidal rate of 5% or less (almost no effect)) | 5 (Herbicidal rate of 90% or more (almost completely withered)) | 0 (Herbicidal rate of 5% or less (almost no effect)) | 0 (Herbicidal rate of 5% or less (almost no effect)) | 0 (Herbicidal rate of 5% or less (almost no effect)) | 0 (Herbicidal rate of 5% or less (almost no effect)) |  |  |  |  |  |
| CCCC(=O)Oc1c(C)nn(C)c(=O)c1-c1c(-c2ccc3c(c2)OCCO3)sc2ccc(C)cc12 [2-159] | 3 (Herbicidal rate of 40% or more and less than 70%) | 0 (Herbicidal rate of 5% or less (almost no effect)) | 2 (Herbicidal rate of 20% or more and less than 40%) | 4 (Herbicidal rate of 70% or more and less than 90%) | 0 (Herbicidal rate of 5% or less (almost no effect)) | 0 (Herbicidal rate of 5% or less (almost no effect)) | 0 (Herbicidal rate of 5% or less (almost no effect)) | 0 (Herbicidal rate of 5% or less (almost no effect)) | 0 (Herbicidal rate of 5% or less (almost no effect)) | 0 (Herbicidal rate of 5% or less (almost no effect)) | 0 (Herbicidal rate of 5% or less (almost no effect)) | 4 (Herbicidal rate of 70% or more and less than 90%) | 5 (Herbicidal rate of 90% or more (almost completely withered)) | 0 (Herbicidal rate of 5% or less (almost no effect)) | 0 (Herbicidal rate of 5% or less (almost no effect)) | 0 (Herbicidal rate of 5% or less (almost no effect)) |  |  |  |  |  |
| CCCC(=O)Oc1c(C)nn(C)c(=O)c1-c1c(-c2ccc(C(F)(F)F)cc2)sc2cc(Cl)ccc12 [3-146] |  |  |  |  |  |  |  |  |  |  |  |  |  |  |  |  | 3 (Herbicidal rate of 40% or more and less than 70%) | 1 (Herbicidal rate of 5% or more and less than 20%) | 0 (Herbicidal rate of 5% or less (almost no effect)) | 4 (Herbicidal rate of 70% or more and less than 90%) | herbicidal effect on Q: false cleavers (evaluation grade 0-5) [5]: 1 (Herbicidal rate of 5% or more and less than 20%); herbicidal effect on H: barnyard grass (evaluation grade 0-5) [6]: 0 (Herbicidal rate of 5% or less (almost no effect)); herbicidal effect on I: wild oat (evaluation grade 0-5) [7]: 0 (Herbicidal rate of 5% or less (almost no effect)); herbicidal effect on Chinese sprangletop (D) [8]: 3 (Herbicidal rate of 40% or more and less than 70%); herbicidal effect on K: Italian ryegrass (evaluation grade 0-5) [9]: 0 (Herbicidal rate of 5% or less (almost no effect)); herbicidal effect on L: windgrass (evaluation grade 0-5) [10]: 0 (Herbicidal rate of 5% or less (almost no effect)); herbicidal effect on barnyard grass (H) [11]: 3 (Herbicidal rate of 40% or more and less than 70%); herbicidal effect on P: chickweed (evaluation grade 0-5) [12]: 5 (Herbicidal rate of 90% or more (almost completely withered)); herbicidal effect on N: redroot pigweed (evaluation grade 0-5) [13]: 3 (Herbicidal rate of 40% or more and less than 70%); herbicidal effect on O: lambsquarters (evaluation grade 0-5) [14]: 3 (Herbicidal rate of 40% or more and less than 70%); herbicidal effect on J: blackgrass (evaluation grade 0-5) [15]: 0 (Herbicidal rate of 5% or less (almost no effect)); herbicidal effect on G: green foxtail (evaluation grade 0-5) [16]: 2 (Herbicidal rate of 20% or more and less than 40%) |
| COc1ccccc1-c1sc2c(OC)cccc2c1-c1c(O)c(C)nn(C)c1=O [4-039] |  |  |  |  |  |  |  |  |  |  |  |  |  |  |  |  | 3 (Herbicidal rate of 40% or more and less than 70%) | 3 (Herbicidal rate of 40% or more and less than 70%) | 4 (Herbicidal rate of 70% or more and less than 90%) | 3 (Herbicidal rate of 40% or more and less than 70%) | herbicidal effect on Q: false cleavers (evaluation grade 0-5) [5]: 3 (Herbicidal rate of 40% or more and less than 70%); herbicidal effect on H: barnyard grass (evaluation grade 0-5) [6]: 3 (Herbicidal rate of 40% or more and less than 70%); herbicidal effect on I: wild oat (evaluation grade 0-5) [7]: 3 (Herbicidal rate of 40% or more and less than 70%); herbicidal effect on Chinese sprangletop (D) [8]: 3 (Herbicidal rate of 40% or more and less than 70%); herbicidal effect on K: Italian ryegrass (evaluation grade 0-5) [9]: 0 (Herbicidal rate of 5% or less (almost no effect)); herbicidal effect on L: windgrass (evaluation grade 0-5) [10]: 3 (Herbicidal rate of 40% or more and less than 70%); herbicidal effect on barnyard grass (H) [11]: 4 (Herbicidal rate of 70% or more and less than 90%); herbicidal effect on P: chickweed (evaluation grade 0-5) [12]: 2 (Herbicidal rate of 20% or more and less than 40%); herbicidal effect on N: redroot pigweed (evaluation grade 0-5) [13]: 3 (Herbicidal rate of 40% or more and less than 70%); herbicidal effect on O: lambsquarters (evaluation grade 0-5) [14]: 2 (Herbicidal rate of 20% or more and less than 40%); herbicidal effect on J: blackgrass (evaluation grade 0-5) [15]: 2 (Herbicidal rate of 20% or more and less than 40%); herbicidal effect on G: green foxtail (evaluation grade 0-5) [16]: 4 (Herbicidal rate of 70% or more and less than 90%) |
